# Test system: granulocytes (ANC), white blood cells (WBC), platelets
# Test: Pharmacokinetic-pharmacodynamic relationship of bone marrow toxicity (%decr vs AUC)
# Type: in vivo
# Text: Carzelesin (U-80,244, Figure 1A) is a cyclopropylpyrroloindole (CPI) prodrug analogue of CC-1065. […] CPI drugs are a class of compounds with unique DNA interactive properties. These agents fit into the minor groove region of DNA, and the CPI function in the molecule mediates a covalent binding to the N3 position of adenine in A-T rich regions, thus forming DNA adducts in a sequence selective fashion (Hurley et al, 1984; Reynolds et al, 1985). Three new CPIs have now been developed. […] Bizelesin differs from the classical CPI drugs in that it contains two chloromethyl functions, which are both converted (via intramolecular rearrangements) to the CPI alkyl- ating species that interact with DNA. Consequently, this agent is capable of forming DNA interstrand cross-links (Lee et al, 1991). […] Therefore, efforts were directed to modu- late the alkylation rate by the preparation of CPI prodrugs that would require chemical or enzymatic conversion. The activation of Carzelesin is a two-step reaction with hydrolysis of the phenyl- urethane substituent to form the intermediate compound U-76,073, followed by ring closure to form the active product U-76,074 (Figure 1B). […] This higher efficacy may be related to the pharmacologic features of the compound. […] Phase I study of Carzelesin (U-80,244) given (4-weekly) by intravenous bolus schedule A Awada1, CJA Punt2, MJ Piccart1, O Van Tellingen3, L Van Manen2, J Kerger1, Y Groot4, J Wanders4, J Verweij5 and DJTh Wagener2 1Institut Jules Bordet, Bd de Waterloo 125, 1000 Brussels, Belgium; 2University Hospital, Geert Grooteplein 8, Box 9101, 6500 HB Nijmegen, The Netherlands; 3The Netherlands Cancer Institute (Antoni van Leeuwenhoek Huis), Plesmanlaan 121, 1066 CX Amsterdam, The Netherlands; 4European Organization for Research and Treatment of Cancer - New Drug Development Office, PO Box 7057, Amsterdam, The Netherlands; 5Rotterdam Cancer Institute, Groene Hilledijk 301, 3075 EA Rotterdam, The Netherlands; on behalf of the EORTC Early Clinical Studies Group and EORTC NDDO Summary Carzelesin is a cyclopropylpyrroloindole analogue which acts as a DNA-sequence-specific alkylating agent. In this phase I study, Carzelesin was given as a 4-weekly 10 min IV infusion to 51 patients with advanced solid tumours. Patients received a median of two courses (range 1-5) at one of nine dose levels: […]. According to NCI-CTC criteria, non- haematological toxicities (grade 1/2) included fever, nausea and vomiting, mucositis and anorexia, none of which was clearly dose related. […] The concentration of U-76,074 (active metabolite) extended above the lower limit of quantitation (1 ng ml-1) for short periods of time and only at the higher dose levels. […]
smiles,measurement,setting,value
CCN(CC)c1ccc2cc(C(=O)Nc3ccc4[nH]c(C(=O)N5C[C@@H](CCl)c6c5cc(OC(=O)Nc5ccccc5)c5[nH]cc(C)c65)cc4c3)oc2c1 [Carzelesin],AUC in other patients with marked toxicity,"human, in vivo",less than 20 ng ml.h-1
same,highest AUC observed in this series,patient at 300 with only very modest toxicity,43.2 ng·mL/h
same,%decr in ANC,"second course, exception patient treated at 300",82%
